The record followed here is patent US3948933A, “Pyrrolo[1,2-c]imidazolediones” (priority 1973, dated 1976).

In data set [1] the test system is secondary conditioned response. The data set can be described thus: inhibition of the secondary conditioned response in rats (anxiolytic and tranquilizing properties). It is filed as in vivo. As to conditions: 60 mg/kg i.p. The protocol: (§1) The depressant activity of the new pyrroloimidazole-diones on the C.N.S. of animals is evidenced by testing the compounds in mice according to the Irwin method. The tranquilizing and anxiolytic activity is evaluated on the basis of the secondary conditioned response in rats.

For the next data set, the system named is C.N.S. As to the kind of experiment: Irwin test (Irwin method) in mice, depressant activity on the C.N.S. As to conditions: Mus musculus, ip. Type of data set: in vivo. Here is the method: as §1
In experiments in mice with the representative compound α-2-(o-chlorophenyl)-5,6,7,7a-tetrahydro-1,3(2H)-dioxo-1H-pyrrolo[1,2-c]imidazolo-5-carboxylic acid, the following ED50 values were determined for parameters of the Irwin test which are related to sedative and hypnotic activities.

Data set [2] can be described thus: acute toxicity (LD50) in mice. As to conditions: mouse, in vivo, ip.

Each structure is given as a SMILES string. Read-outs that look alike come from different tables or passages of the source.

As to `CCNC(=O)C1CCC2C(=O)N(c3ccccc3)C(=O)N12` (stereo not drawn) [Example 14, α-5-ethylcarbamyl-2-phenyl-5,6,7,7a-tetrahydro-1H-pyrrolo[1,2-c]imidazole-1,3(2H)-dione], the Deconditioned/Conditioned in data set [1] is recorded as 7/10.
Same read-out and setting: the figure for `CCN(CC)C(=O)C1CCC2C(=O)N(c3cccc(C(F)(F)F)c3)C(=O)N12` (centres unmarked) [Example 37, 5-diethylcarbamyl-2-(m-trifluoromethyl)phenyl-5,6,7,7a-tetrahydro-1H-pyrrolo-[1,2-c]imidazole-1,3(2H)-dione] is 10/10; for `CCN(CC)C(=O)C1CCC2C(=O)N(c3cccc(Cl)c3)C(=O)N12` (stereo not drawn) [Example 13, α-5-diethylcarbamyl-2-(m-chlorophenyl)-5,6,7,7a-tetrahydro-1H-pyrrolo[1,2-c]imidazole-1,3(2H)-dione] it is 7/10.
Consider `CCN(CC)C(=O)C1CCC2C(=O)N(c3ccccc3)C(=O)N12` (single isomer, unassigned) [Example 22, α(-)-5-diethylcarbamyl-2-phenyl-5,6,7,7a-tetrahydro-1H-pyrrolo[1,2-c]imidazole-1,3(2H)-dione], for which, in data set [1] (60 mg/kg), the Deconditioned/Conditioned is recorded as 6/10.
Still for that read-out and setting: then `CCN(CC)C(=O)C1CCC2C(=O)N(c3ccccc3)C(=O)N12` (single isomer, unassigned) [Example 21, α(+)-5-diethylcarbamyl-2-phenyl-5,6,7,7a-tetrahydro-1H-pyrrolo[1,2-c]imidazole-1,3(2H)-dione], with 7/10.
For the molecule `CCN(CC)C(=O)C1CCC2C(=O)N(c3ccccc3)C(=O)N12` (stereo not drawn) [Example 12, α-5-diethylcarbamyl-2-phenyl-5,6,7,7a-tetrahydro-1H-pyrrolo[1,2-c]imidazole-1,3(2H)-dione], the Deconditioned/Conditioned in data set [1] was 8/10.
Turning to `O=C(O)C1CCC2C(=O)N(c3ccccc3Cl)C(=O)N12` (stereo not drawn) [α-2-(o-chlorophenyl)-5,6,7,7a-tetrahydro-1,3(2H)-dioxo-1H-pyrrolo[1,2-c]imidazolo-5-carboxylic acid], the ED50 with C.N.S. (read-out: ED50, Impairment of motor coordination) stood at 100 mg/kg; in the data set on C.N.S. (read-out: ED50, Minimal hypnotic dose) it was 200 mg/kg; in the data set on C.N.S. (read-out: ED50, Righting reflex) it was 80 mg/kg; in the data set on C.N.S. (read-out: ED50, Spontaneous activity) it was 100 mg/kg. For the same molecule, the LD50 in data set [2] was around 700 mg/kg.
